Source: ChEMBL document CHEMBL5233273, “An overview of hydroxypyranone and hydroxypyridinone as privileged scaffolds for novel drug discovery” (Eur J Med Chem, 2021)
Converted amounts (≈) assume the structure as drawn.

How the values were obtained:
[1] = Antiinflammatory activity in macrophages assessed as reduction in LPS-induced NO production; assay type: functional, cell-based; conditions: Macrophage
RAW264.7 = assay: Antiinflammatory activity in mouse RAW264.7 assessed as reduction in LPS-induced PGE2 production; assay type: functional, cell-based
[2] = Antioxidant activity assessed as DPPH radical scavenging activity; assay type: functional
[3] = biological target: T1, Tyrosinase (Agaricus bisporus) (UniProt O42713); assay: Inhibition of mushroom tyrosinase monophenolase activity
T1 sequence (whole entry): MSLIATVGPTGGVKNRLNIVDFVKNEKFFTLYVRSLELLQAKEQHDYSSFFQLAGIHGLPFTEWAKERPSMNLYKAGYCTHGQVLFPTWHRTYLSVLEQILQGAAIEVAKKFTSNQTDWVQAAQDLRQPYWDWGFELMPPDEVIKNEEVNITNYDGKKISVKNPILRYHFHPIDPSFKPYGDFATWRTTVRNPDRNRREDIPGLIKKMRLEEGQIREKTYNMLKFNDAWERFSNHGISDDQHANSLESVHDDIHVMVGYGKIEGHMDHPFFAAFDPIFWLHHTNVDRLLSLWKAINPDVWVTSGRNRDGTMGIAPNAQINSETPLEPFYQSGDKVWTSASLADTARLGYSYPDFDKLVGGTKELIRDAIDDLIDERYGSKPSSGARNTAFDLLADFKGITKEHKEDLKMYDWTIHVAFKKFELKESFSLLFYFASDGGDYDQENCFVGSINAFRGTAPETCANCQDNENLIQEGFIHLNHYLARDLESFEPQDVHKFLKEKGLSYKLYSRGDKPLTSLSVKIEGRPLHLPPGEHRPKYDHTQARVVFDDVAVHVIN

Tyrosinase [4] = biological target: T2, Tyrosinase (Agaricus bisporus, UniProt O42713); assay: Inhibition of mushroom tyrosinase diphenolase activity
T2 sequence (O42713 whole entry): T1 sequence (whole entry)

Staphylococcus aureus [5] = assay: Antibacterial activity against Staphylococcus aureus assessed as zone of inhibition; assay type: functional
Bacillus subtilis [6] = assay: Antibacterial activity against Bacillus subtilis assessed as zone of inhibition; assay type: functional
Staphylococcus aureus [7] = assay: Antibacterial activity against Staphylococcus aureus; assay type: functional
Enterococcus faecalis [8] = assay: Antibacterial activity against Enterococcus faecalis; assay type: functional
Escherichia coli [9] = assay: Antibacterial activity against Escherichia coli; assay type: functional
Pichia kudriavzevii = assay: Antifungal activity against Candida krusei ATCC 6258; assay type: functional
[10] = test system: Mycobacterium tuberculosis; assay: Antitubercular activity against Mycobacterium tuberculosis H37Rv ATCC 27294; assay type: functional
Mycobacterium avium = assay: Antitubercular activity against Mycobacterium avium ATCC 15769; assay type: functional
Escherichia coli [11] = assay: Antibacterial activity against Escherichia coli ATCC 35218; assay type: functional
Pseudomonas aeruginosa = assay: Antibacterial activity against Pseudomonas aeruginosa ATCC 10145; assay type: functional
Proteus mirabilis = assay: Antibacterial activity against Proteus mirabilis ATCC 7002; assay type: functional
Klebsiella pneumoniae = assay: Antibacterial activity against Klebsiella pneumoniae RSKK 574; assay type: functional
Acinetobacter baumannii = assay: Antibacterial activity against Acinetobacter baumannii i RSKK 02026; assay type: functional
Candida albicans = assay: Antifungal activity against Candida albicans ATCC10231; assay type: functional
Candida parapsilosis = assay: Antifungal activity against […]; assay type: functional; conditions: Lodderomyces parapsilosis
Candida tropicalis = assay: Antifungal activity against Candida tropicalis ATCC 13803; assay type: functional
B16-F10 [12] = assay: Inhibition of tyrosinase in mouse B16-F10 cells assessed as inhibition of melanin production at 10 ug/ml relative to control; assay type: cell-based; conditions: dose 10.0 µg/ml
[13] = biological target: Amine oxidase [flavin-containing] B (Homo sapiens, UniProt P27338); assay: Inhibition of human MAO-B
Chain of Amine oxidase [flavin-containing] B (P27338 whole entry): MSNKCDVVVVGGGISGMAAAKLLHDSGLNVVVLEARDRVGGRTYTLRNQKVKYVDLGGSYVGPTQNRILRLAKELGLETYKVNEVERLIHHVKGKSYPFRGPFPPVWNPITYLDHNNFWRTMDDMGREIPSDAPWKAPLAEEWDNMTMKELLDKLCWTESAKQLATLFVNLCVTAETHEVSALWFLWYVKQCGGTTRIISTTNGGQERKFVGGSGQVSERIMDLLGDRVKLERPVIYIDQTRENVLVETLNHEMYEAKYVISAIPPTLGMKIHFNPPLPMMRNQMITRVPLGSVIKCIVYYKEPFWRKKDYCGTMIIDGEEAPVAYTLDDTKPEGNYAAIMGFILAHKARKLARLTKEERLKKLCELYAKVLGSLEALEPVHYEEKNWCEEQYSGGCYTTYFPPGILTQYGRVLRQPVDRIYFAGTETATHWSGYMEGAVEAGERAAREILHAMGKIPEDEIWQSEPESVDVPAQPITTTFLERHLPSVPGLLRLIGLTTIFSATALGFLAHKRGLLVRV

Saccharomyces cerevisiae = assay: Antifungal activity against Saccharomyces cerevisiae; assay type: functional
Aspergillus niger = assay: Antifungal activity against Aspergillus niger; assay type: functional
B16-F10 [14] = assay: Inhibition of tyrosinase in mouse B16-F10 cells assessed as inhibition of melanin production at 5 ug relative to control; assay type: cell-based; conditions: dose 5.0 µg
A549 = assay: Cytotoxicity against human A549 cells; assay type: functional, cell-based
DU-145 = assay: Cytotoxicity against human DU-145 cells; assay type: functional, cell-based
MCF7 = assay: Cytotoxicity against human MCF7 cells; assay type: functional, cell-based
HeLa = assay: Cytotoxicity against human HeLa cells; assay type: functional, cell-based
Tyrosinase [15] = biological target: T2, Tyrosinase; assay: Inhibition of mushroom tyrosinase
[16] = Inhibition of TBHP induced lipid peroxidation in human HaCaT cells; assay type: functional
Staphylococcus aureus [17] = assay: Antibacterial activity against Staphylococcus aureus ATCC 25923; assay type: functional
Enterococcus faecalis [18] = assay: Antibacterial activity against Enterococcus faecalis ATCC 29212; assay type: functional
Bacillus subtilis [19] = assay: Antibacterial activity against Bacillus subtilis ATCC 6633; assay type: functional
Hepatitis C virus = assay: Antiviral activity against HCV; assay type: functional, organism-based, Hepacivirus hominis

## O=c1cc(CSc2ccc(Cl)cc2)occ1O
[1]
  IC50: 23.9 µM

## O=c1cc(/C=C/c2ccc(O)cc2)occ1O
RAW264.7
  IC50: 3.2 µM

## CCOC(=O)CC(c1ccccc1)c1oc(CO)cc(=O)c1O (centres undefined)
[2]
  Activity: 58.2%

## CCCCCCn1cc(O)c(=O)cc1/C=N/OCC
[3]
  IC5: 2.04 µM
Tyrosinase [4]
  IC50: 13.9 µM

## N#CC(C(=O)c1c[nH]c2ccccc12)C(c1ccc(Cl)cc1)c1oc(CO)cc(=O)c1O (centres undefined)
Staphylococcus aureus [5]
  inhibition zone (IZ): 22 mm
Bacillus subtilis [6]
  inhibition zone (IZ): 19.5 mm

## Cc1cc(=O)c(O)c(C(=O)Nc2ccc3c(C)cc(=O)oc3c2)o1
Staphylococcus aureus [7]
  MIC: 8 µg/mL (≈ 24.4 µM)
Enterococcus faecalis [8]
  MIC: 8 µg/mL (≈ 24.4 µM)
Escherichia coli [9]
  MIC: 8 µg/mL (≈ 24.4 µM)
Pichia kudriavzevii
  MIC: 4 µg/mL (≈ 12.2 µM)

## O=c1cc(CCl)oc(CN2CCN(c3ccccc3)CC2)c1O
Pichia kudriavzevii
  MIC: 8 µg/mL (≈ 23.9 µM)
[10]
  MIC: 4 µg/mL (≈ 11.9 µM)
Mycobacterium avium
  MIC: 4 µg/mL (≈ 11.9 µM)
Escherichia coli [11]
  MIC: 8 µg/mL (≈ 23.9 µM)
Pseudomonas aeruginosa
  MIC: 8 µg/mL (≈ 23.9 µM)
Proteus mirabilis
  MIC: 8 µg/mL (≈ 23.9 µM)
Klebsiella pneumoniae
  MIC: 8 µg/mL (≈ 23.9 µM)
Acinetobacter baumannii
  MIC: 8 µg/mL (≈ 23.9 µM)
Candida albicans
  MIC: 8 µg/mL (≈ 23.9 µM)
Candida parapsilosis
  MIC: 8 µg/mL (≈ 23.9 µM)
Candida tropicalis
  MIC: 8 µg/mL (≈ 23.9 µM)

## O=C(/C=C/c1cc(=O)c(O)co1)OCCCOCCCOC(=O)/C=C/c1cc(=O)c(O)co1
B16-F10 [12]
  inhibition: 22.4%

## CCc1c(O)c(=O)cc(C)n1CCCn1cc(COc2ccc3ccc(=O)oc3c2)nn1
[13]
  IC50: 0.68 µM

## CO[C@@H]1O[C@H](COCc2cc(=O)c(O)co2)[C@@H](C)[C@H](OCc2cc(=O)c(O)co2)[C@H]1N
Staphylococcus aureus [7]
  MIC: 1040 µg/mL (≈ 2370 µM)
Escherichia coli [9]
  MIC: 1040 µg/mL (≈ 2370 µM)
Saccharomyces cerevisiae
  MIC: 1040 µg/mL (≈ 2370 µM)
Aspergillus niger
  MIC: 1040 µg/mL (≈ 2370 µM)

## O=c1cc(/C=C/c2cc(=O)c(O)co2)occ1O
B16-F10 [14]
  inhibition: 19.5%

## CC(C)(C)[Si](C)(C)OCc1cc(=O)c(O)c(C(C[N+](=O)[O-])c2ccc(Cl)cc2)o1 (centres undefined)
A549
  IC50: 18 µM
DU-145
  IC50: 16 µM
MCF7
  IC50: 18 µM
HeLa
  IC50: 11 µM

## O=C(/C=C/c1ccc2c(c1)OCO2)OCc1cc(=O)c(O)co1
Tyrosinase [15]
  IC50: 1.4 µM
[16]
  inhibition (INH): 47%

## O=c1cc(CCl)oc(CN2CCN(Cc3ccc(C(F)(F)F)cc3)CC2)c1O
[10]
  MIC: 4 µg/mL (≈ 9.6 µM)
Mycobacterium avium
  MIC: 4 µg/mL (≈ 9.6 µM)
Staphylococcus aureus [17]
  MIC: 4 µg/mL (≈ 9.6 µM)
Enterococcus faecalis [18]
  MIC: 4 µg/mL (≈ 9.6 µM)
Bacillus subtilis [19]
  MIC: 4 µg/mL (≈ 9.6 µM)
Escherichia coli [11]
  MIC: 8 µg/mL (≈ 19.2 µM)
Pseudomonas aeruginosa
  MIC: 8 µg/mL (≈ 19.2 µM)
Proteus mirabilis
  MIC: 8 µg/mL (≈ 19.2 µM)
Klebsiella pneumoniae
  MIC: 8 µg/mL (≈ 19.2 µM)
Acinetobacter baumannii
  MIC: 8 µg/mL (≈ 19.2 µM)

## O=C(OCc1cc(=O)c(O)co1)c1ccc2ccccc2c1
Hepatitis C virus
  EC50: 2.74 µM

## O=c1cc(/C=C/c2ccc(O)c(O)c2)occ1O
RAW264.7
  IC50: 10.3 µM

## COc1ccc(C(=O)OCc2cc(=O)c(O)co2)cc1
Tyrosinase [15]
  IC50: 20 µM
Hepatitis C virus
  EC50: 2.55 µM
